The record followed here is patent publication US7892767B2, “Phosphospecific chemokine receptor antibodies” (Washington University in St. Louis, priority 2005, dated 2011).

One experiment addresses CXCR4 (Homo sapiens, UniProt P61073). Kind of experiment: Stimulated CXCR4 phosphorylation in LN428 GBM cells (western blot). The class given is cell-based. Also noted: lysates from the glioblastoma cell line LN428, which is known to express high levels of CXCR4; endogenous in cells; host or cells: LN428 GBM cell line. Here is the method: Cell Culture, transfections and stimulation of CXCR4 phosphorylation. The U87 glioblastoma multiforme (GBM, grade IV) cell line was obtained from the American Type Culture Collection. The LN428 GBM cell line was a kind gift of Dr Erwin van Meir (Winship Cancer Center, Emory University, Atlanta, Ga.). U87 cells were grown in minimum essential a media supplemented with 10% fetal bovine serum ((FBS), Biomedia, Foster City, Calif.). LN428 cells were grown in DMEM (Fisher, Pittsburgh, Pa.) supplemented with 10% horse serum (Sigma). All cells were grown in the presence of penicillin-streptomycin. The coding sequence for human CXCR4 was obtained by high fidelity RT-PCR (Superscript III Platinum, Invitrogen), and cloned into the expression vector pMSCVneo (Clontech, Palo Alto, Calif.). Transfections were performed with 0.3 μg of plasmid DNA in 20 μl Lipofectamine (Invitrogen)/35 mm^2 tissue culture dish for 9 hours according to the manufacturer's instructions. Cells recovered in Optimem supplemented with 10% FBS. Transfected and non-transfected cells were placed in serum free media for 24 hours prior to treatment with agents to stimulate CXCR4 phosphorylation. Treatment was usually for 0 or 10 minutes with 1 μg/ml CXCL12 (Peprotech, Rocky Hill N.J.), 4 μM 4-Phorbol 12-myristate 13-acetate (PMA) or 10 nM EGF. In some experiments, CXCL12 was washed away and cells were incubated for an additional 20 minutes in serum free media alone.
Western Blot Analysis. Whole-cell extracts were obtained by lysing cells with lysis buffer (20 mM Tris pH 7.4, 137 mM NaCl, 10% Glycerol and 1% Triton X-100) supplemented with phosphatase inhibitor cocktail set II (Calbiochem, La Jolla, Calif.) and protease inhibitors PMSF (1 mM), leupeptin (0.005 mg/ml) and aprotonin (0.005 mg/ml). The proteins (50-75 μg) were resolved with 10% Bis-Tris gels (Invitrogen) and transferred onto the nitrocellulose membrane Hybond ECL (Amersham, Piscataway, N.J.) according to standard protocols. Polyclonal anti-CXCR4 antibody was used at a 1:500 dilution and P338-CXCR4 and P339-CXCR4 directed antibodies were used at 1:100 dilutions overnight at 4° C. This was followed by incubation with horseradish peroxidase-conjugated secondary antibody (1:15,000; Bio-Rad). Peroxide activity was detected using the enhanced chemiluminescence Supersignal West Dura system (Pierce, Rockford, Ill.). Mouse anti-actin antibody at a concentration of 1:1500 was used as a loading control. Peptide competitions and lambda phosphatase treatment were performed as described above.
The utility of these antibodies for evaluating the relationship between ligand binding and CXCR4 function is dependent upon their ability to distinguish a ligand activated form of the receptor. Serum starvation increased CXCL12 responsiveness (data not shown), and for all of these experiments LN428 GBM cells were serum starved for 24 hours prior to CXCL12 treatment. Serum starved LN428 cells were treated with 1 μg/ml CXCL12 for 0 or 10 minutes and the abundance of phospho-CXCR4 was determined by western blot and immuno-localization in fixed cells. […] A similar CXCL12-induced increase in P339-CXCR4 (FIG. 3B), but not P338-CXCR4 (data not shown) immunoreactivity was seen by immunofluorescent analysis of paraformaldehyde fixed cells. After 10 minutes of exposure to CXCL12, P339-CXCR4 can be seen localized to the surface of LN428 cells (FIG. 3B). CXCL12 was then washed away and cells were incubated in its absence for an additional 20 minutes. Surface labeling declined as a function of time and P339-CXCR4 was seen accumulating intracellularly.
Whether this is the only kinase that can phosphorylate these residues is unclear. The observation that protein kinase C (PKC) stimulated CXCR4 internalization also depends upon phosphorylation of this region of the molecule raises the question of whether these sites might also be PKC phosphorylation sites (17, 19, 27, 28). […]

A further experiment relates to cortical astrocytes. Kind of experiment: Intracellular cAMP by ELISA, primary cortical astrocytes. It counts as cell-based, mouse. To be noted: 1 μg/ml CXCL12. As to the method:
Primary astrocyte cultures. Primary astrocytes were cultured from 1 to 3-day-old BALB/C mice as described (57). The cortices were triturated into single cells in minimal essential medium (Invitrogen) containing 10% FCS, and then plated onto 75 cm^2 T-flasks (0.5 hemisphere/flask) for 10-14 days. Astrocytes were prepared by vigorous shaking of T-flasks overnight, removal of non-adherent cells, and isolation of the remaining adherent cells, with 0.1% trypsin.
(§1) Growth factor and drug treatment. Following serum-starvation for 24 hours, astrocytes, granule cells, U87 cells and Daoy cells, were treated with 1 μg/ml CXCL12 (PeproTech), […] AMD3465 (kind gift from Simon Fricker, AnorMED, Langley, BC, Canada) (200 μM Rolipram (Sigma), or 10 μM Forskolin (Sigma) as indicated.
(§2) Determination of cAMP concentration. Competitive immunoassay for cAMP concentration was performed exactly as directed by the manufacturer. Absorbance at 405 nm was measured and cAMP concentrations were determined by calculation based on a standard curve. Protein concentrations were measured by colormetric assay (Bio-Rad, Hercules, Calif.) according to the manufacturer's directions. cAMP values were normalized to protein for each sample individually.

Experiment [1] has as its system Daoy medulloblastoma cells. Kind of experiment: Intracellular cAMP by ELISA, Daoy medulloblastoma cells. It counts as cell-based, human. To be noted: 1 μg/ml CXCL12. Here is the method: as §1
(§3) cAMP measurement in cell culture. cAMP concentration was measured using a Correlated-EIA™. Enzyme Immunoassay Kit (Assay Designs Inc. MI) according to the manufacturer's instructions. Briefly, U87 or Daoy cells were serum-starved for 24 hours, and treated with CXCL12 (1 μg/ml), Rolipram (200 μM), or forskolin (10 μM). Cells were lysed in 0.1M HCL and particulate matter was removed by centrifugation at >600×g for 10 min. The supernatants were dried down and resuspended in assay buffer.
as §2

For a further experiment, the system named is U87 glioblastoma cells. Kind of experiment: Intracellular cAMP by ELISA, U87 glioblastoma cells. The class given is cell-based, human. To be noted: 1 μg/ml CXCL12. As to the method: as §1, §3, §2
Where [2] appears, read: 1 μg/ml CXCL12, 4 μM PMA or 10 nM EGF.

CXCR4, sequence (P61073 whole entry): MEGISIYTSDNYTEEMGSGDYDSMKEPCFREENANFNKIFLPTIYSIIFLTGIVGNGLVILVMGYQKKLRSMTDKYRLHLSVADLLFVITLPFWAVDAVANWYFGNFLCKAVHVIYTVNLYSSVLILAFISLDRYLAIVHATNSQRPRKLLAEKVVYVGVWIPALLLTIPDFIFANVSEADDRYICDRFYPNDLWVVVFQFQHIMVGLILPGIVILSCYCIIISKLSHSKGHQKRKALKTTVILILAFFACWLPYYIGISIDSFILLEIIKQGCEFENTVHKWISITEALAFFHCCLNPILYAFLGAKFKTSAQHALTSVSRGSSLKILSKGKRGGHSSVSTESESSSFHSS

With “CXCL12: chemokine ligand of CXCR4 (Peprotech)”, in the experiment with CXCR4 (setting [2]), the P338 phosphorylation stimulated entry is recorded as “not” and the P339 phosphorylation result is given as “stimulated”. The “P338-CXCR4 levels after treatment” value with CXCR4 (1 μg/ml CXCL12, 10 minutes, serum starved LN428 cells) was “unaffected”. For the same substance, the “cAMP, lower level of fluctuation” value in the experiment with cortical astrocytes was 40 % of baseline. Besides, in experiment [1], the “cyclic AMP levels after CXCL12” value is on record as “rapidly declined” and the “reduction in cAMP as compared to GPCs (area under the curve)” value was 70%. For the same substance, in the experiment with U87 glioblastoma cells, the “cyclic AMP levels after CXCL12” value is recorded as “rapidly declined” and the “reduction in intracellular cAMP as compared to astrocytes (area under the curve)” value was determined as 45%.
